Source: patent US12275688B2, “Crystalline solids of MEK inhibitor N-((R)-2,3-dihydroxypropoxy)-3,4-difluoro-2-(2-fluoro-4-iodo-phenylamino)-benzamide and uses thereof” (SpringWorks Therapeutics, Inc., priority 2021, dated 2025)

Key:
Assay type in all cases: physicochemical
[1] = Water activity studies of hydrates at 23° C.; conditions: water activities (aw) 0.6-0.99
Protocol: Water activity studies of the stable hydrated Forms VI and XIX were conducted to determine their relative thermodynamic stabilities. The studies were conducted at 23° C. in various water/ethanol mixtures to provide water activities (aw) from 0.6-0.99. The water activity range includes the approximate water activity of the current final isolation step of the mirdametinib manufacturing process. Saturated suspensions were prepared by stirring an excess of mirdametinib in the test solvents for 16 hours. The suspensions were filtered and transferred onto mixtures containing equivalent amounts of Form VI and Form XIX. […] The hydrates may be kinetically favored at higher water activities.

[2] = Solid-state stability of crystal forms at ambient conditions
Description: The following sections describe and summarize the physical properties of each of the crystal forms observed for mirdametinib.

[3] = Drying of certain forms via vacuum oven at 45° C.; conditions: overnight in vacuum oven at 45° C.; PXRD at about 70% ambient lab humidity
Protocol: Drying studies for certain forms were conducted overnight in a vacuum oven at 45° C. After drying, samples were equilibrated to RT for 10 min. and analyzed by PXRD at about 70% ambient lab humidity.

[4] = Desolvation/dehydration by heating in TGA pan to 100° C.; conditions: 15° C./min from 25 to 100° C., 5 min. hold at 100° C., air-cooled to RT
Protocol: Desolvation/dehydration studies of certain forms were conducted in a TGA pan with loose lid at a heating rate of 15° C./min from 25 to 100° C. with a 5 min. hold at 100° C. Samples were air-cooled to RT on the TGA and analyzed by PXRD if crystalline. […] PXRD indicated Form I.

[5] = Toluene-spiked slurry studies of Form V in water:ethanol; conditions: water:ethanol (1.1/0.5 v/v) overnight at RT
Description: The process-relevant toluene solvate (Form V) was stirred in water:ethanol (1.1/0.5 v/v) overnight at RT with varying amounts of added toluene. The suspensions were filtered, and solids analyzed by PXRD.

Structure (SMILES) | Form after vacuum oven drying (PXRD) [3] | Result of desolvation/dehydration by heating [4] | other results
O=C(NOC[C@H](O)CO)c1ccc(F)c(F)c1Nc1ccc(I)cc1F [Form IV, N—((R)-2,3-dihydroxypropoxy)-3,4-difluoro-2-(2-fluoro-4-iodo-phenylamino)-benzamide] | – | – | Relative stability versus hydrate Forms VI and XIX [1]: more stable at water activities (aw) 0.6-0.99 than hydrate Forms VI and XIX
O=C(NOC[C@H](O)CO)c1ccc(F)c(F)c1Nc1ccc(I)cc1F [Form VI, N—((R)-2,3-dihydroxypropoxy)-3,4-difluoro-2-(2-fluoro-4-iodo-phenylamino)-benzamide] | Partially converted to Form A | melted and solidified in molten, amorphous state, possible decomposition | Stable in solid-state at ambient conditions for ([2]; solid-state, ambient conditions): ≥ 2 weeks
O=C(NOC[C@H](O)CO)c1ccc(F)c(F)c1Nc1ccc(I)cc1F [Form XIII, N—((R)-2,3-dihydroxypropoxy)-3,4-difluoro-2-(2-fluoro-4-iodo-phenylamino)-benzamide] | Form XIII/Form IV mixture converted to Form IV | – | –
O=C(NOC[C@H](O)CO)c1ccc(F)c(F)c1Nc1ccc(I)cc1F [Form XIX, N—((R)-2,3-dihydroxypropoxy)-3,4-difluoro-2-(2-fluoro-4-iodo-phenylamino)-benzamide] | Remained unchanged | solid particles (not melted). PXRD indicated Form I | Stable in a capped vial for ([2]; capped vial): ≥ 2 weeks
O=C(NOC[C@H](O)CO)c1ccc(F)c(F)c1Nc1ccc(I)cc1F [Form V, N—((R)-2,3-dihydroxypropoxy)-3,4-difluoro-2-(2-fluoro-4-iodo-phenylamino)-benzamide] | Remained unchanged | melted and solidified in molten, amorphous state, possible decomposition | Stable at ambient conditions for ([2]; ambient conditions): ≥ 10 days; Form after slurry (PXRD) ([5]; 0.5% added toluene (relative to mirdametinib weight)): converted to mostly Form IV with some lesser amount of Form V; Form after slurry (PXRD) ([5]; 1% and 2% added toluene): higher relative amounts of Form V were observed; Form after slurry (PXRD) ([5]; no added toluene): converted to phase-pure Form IV
